This assay has as its target human MMP-13 catalytic domain (hMMP-13CD) (Homo sapiens, UniProt P45452). As to the kind of experiment: Inhibition of MMP-13 catalytic domain (thiopeptolide substrate assay). Format: biochemical. An excerpt:
The assays measure the amount by which a test compound reduces the hydrolysis of a thiopeptolide substrate catalyzed by a matrix metalloproteinase enzyme. Such assays are described in detail by Ye et al., in Biochemistry, 1992;31(45):11231-11235, which is incorporated herein by reference. One such assay is described below in Biological Method 1.
Thiopeptolide substrates show virtually no decomposition or hydrolysis at or below neutral pH in the absence of a matrix metalloproteinase enzyme. A typical thiopeptolide substrate commonly utilized for assays is Ac-Pro-Leu-Gly-thioester-Leu-Leu-Gly-OEt. […] The change in absorbance at 405 nm is monitored on a Thermo Max microplate reader (molecular Devices, Menlo Park, Calif.) at room temperature (22° C.). […]
Some representative compounds of Formula I have been evaluated for their ability to inhibit MMP-13. Inhibitor activity versus other MMPs with the compounds may be determined using, for example, MMP-1FL, which refers to full length interstitial collagenase; MMP-2FL, which refers to full length Gelatinase A; MMP-3CD, which refers to the catalytic domain of stromelysin; MMP-7FL, which refers to full length matrilysin; MMP-9FL, which refers to full length Gelatinase B; MMP-13CD, which refers to the catalytic domain of collagenase 3; and MMP-14CD, which refers to the catalytic domain of MMP-14. […]

`O=C(O)c1ccc(Cn2ccc3ccc(C#CCn4ccnn4)cc3c2=O)cc1` [4-[1-oxo-7-(3-[1,2,3]triazol-1-ylprop-1-ynyl)-1H-isoquinolin-2-ylmethyl]benzoic acid] registered an IC50 greater than 50 µM.

Usually IC50 stands for the point on the concentration scale where inhibition reaches its midpoint.

The values are drawn from patent US20040034009A1, “1,6-Fused uracil derivatives as matrix metalloproteinase inhibitors” (priority 2002, published 2004).
